Measurements reported in patent publication US20250281457A1, “TREATMENT OR PREVENTION OF DENGUE VIRAL INFECTION” (Janssen Pharmaceuticals, Inc., priority 2022, published 2025).
Like-named read-outs stand apart in the source and are kept apart here.

Assay: Plasma pharmacokinetics with loading dose and weekly or twice weekly maintenance dosing, fed (Example 5)
Type: in vivo, human
Details: for AUC: read-out: Mean AUCτ (SD); for Tmax: read-out: Median tmax (min-max); for Cmax: read-out: Mean Cmax (SD)
Procedure: A pharmaceutical formulation comprising Compound (a) as described in Example 2 (SF2a/b) was administered as an oral dosage form, to healthy adult participants, in a fed state. Four dose regimens were applied: • Panel I (weekly dosing): 450 mg of Compound (a) twice a day (BID) for two days: on day 1 (D1) and on day 2 (D2) (loading dose); and then 900 mg once a week (Q7D), on day 3 (D3), day 10 (D10), day 17 (D17), and on day 24 (D24) (maintenance dose). • Panel II (biweekly dosing): 450 mg of Compound (a) twice a day (BID) for two days: on day 1 (D1) and on day 2 (D2); (loading dose) and then 450 mg once every 3 (Q3D) or 4 days (Q4D): on day 3 (D3), on day 6 (D6), on day 10 (D10), on day 13 (D13), on day 17 (D17), on day 20 (D20), on day 24 (D24), and on day 27 (D27), for a total of 900 mg each week administered through two doses of 450 mg each (maintenance dose). • Panel III (weekly dosing): 150 mg of Compound (a) twice a day (BID) for two days: on day 1 (D1) and on day 2 (D2) (loading dose); and then 300 mg once a week (Q7D): on day 3 (D3), day 10 (D10), day 17 (D17), and on day 24 (D24) (maintenance dose). • Panel IV (biweekly dosing): 150 mg of Compound (a) twice a day (BID) for two days: on day 1 (D1) and on day 2 (D2) (loading dose); and then 150 mg Q3D or Q4D: on day 3 (D3), on day 6 (D6), on day 10 (D10), on day 13 (D13), on day 17 (D17), on day 20 (D20), on day 24 (D24), and on day 27 (D27), for a total of 300 mg each week administered through two doses of 150 mg each (maintenance dose).
Oral dosage forms were administered together with approximately 240 mL of non-carbonated water under fed conditions, and were taken within 10 minutes after completion of normal standardized normal fat breakfast in the morning or after completion of normal standardized normal fat dinner in case of evening dosing. Intake of Compound (a) took place at around the same time each day. Intake of Compound (a) marked time 0 hours.
A standardized normal fat meal was served approximately 30 minutes before study drug intake. The standardized normal fat meal contained approximately 21 g of fat, 67 g of carbohydrates, 19 g of proteins resulting in around 533 kcal (an example meal is 4 slices of bread, 2 slices of ham or cheese, butter, jelly, and 1 or 2 cups (up to 355 mL) of decaffeinated coffee or tea with milk and/or sugar). The standardized normal fat meal was ingested entirely within 30 minutes or less. Within 10 minutes after completing the meal, but no more than 30 minutes after the start of the meal, study drug was administered. In case of Compound (a) intake in the evening, timing of standardized dinner was aligned to time of drug intake. […]
For Study Panel 1 only, additional whole blood samples were be collected on Days 1, 24, 25, 26, 38, 45, 51, and 59 using venipuncture. The whole blood samples were be used for the determination of Compound (a) whole blood concentrations and for determination of Compound (a) plasma concentrations. To determine Compound (a) venous whole blood concentrations, an aliquot of the whole blood sample was be pipetted onto the TASSO M-20 for better comparison with capillary whole blood samples collected by TASSO M-20. […]
Separation between metabolites and interfering endogenous compounds was achieved by injecting 2 μL sample extract onto an Acquity UPLC BEH C18 column (50×2.1 mm, 1.7 μm, Waters) at 50° C. and using 10 mM ammonium bicarbonate solution as mobile phase A, and methanol: acetonitrile (50:50, v/v) as mobile phase B. A gradient elution at a flow rate of 0.600 mL/min was applied using the following program: 35% B was increased to 90% B in 3 min, was further increased to 98% B at 3.01 min and held constant up to 4.00 min.
A Triple Quad 6500+ mass spectrometer (Sciex) equipped with a turbo ion spray source was used for analyte detection in positive ion mode using electrospray ionization. […]

[1] = Panel I (450 mg BID Days 1-2, then 900 mg Q7D; SF2a/b, fed), Day 2
[2] = Panel II (450 mg BID Days 1-2, then 450 mg Q3D/Q4D; SF2a/b, fed), Day 2
[3] = Panel III (150 mg BID Days 1-2, then 300 mg Q7D; SF2a/b, fed), Day 2
[4] = Panel IV (150 mg BID Days 1-2, then 150 mg Q3D/Q4D; SF2a/b, fed), Day 2
[5] = human, plasma, oral, 150 mg, Panel III (150 mg BID Days 1-2, then 300 mg Q7D; SF2a/b, fed), Day 1
[6] = human, plasma, oral, 150 mg, Panel III (150 mg BID Days 1-2, then 300 mg Q7D; SF2a/b, fed), Day 2
[7] = human, plasma, oral, 150 mg, Panel IV (150 mg BID Days 1-2, then 150 mg Q3D/Q4D; SF2a/b, fed), Day 3
[8] = human, plasma, oral, 150 mg, Panel IV (150 mg BID Days 1-2, then 150 mg Q3D/Q4D; SF2a/b, fed), Day 27

- Mean Cmin (SD) (Panel I (450 mg BID Days 1-2, then 900 mg Q7D; SF2a/b, fed), Day 1): 0.000 (0.000) ng/mL
- Mean Cmin (SD) [1]: 2750 (1089) ng/mL
- Mean Ctrough (SD) [1]: 2780 (1047) ng/mL
- Mean Ctrough (SD) (Panel I (450 mg BID Days 1-2, then 900 mg Q7D; SF2a/b, fed), Day 3): 4370 (976) ng/mL
- Mean Ctrough (SD) (Panel I (450 mg BID Days 1-2, then 900 mg Q7D; SF2a/b, fed), Day 10): 1965 (35.4) ng/mL
- Mean Ctrough (SD) (Panel I (450 mg BID Days 1-2, then 900 mg Q7D; SF2a/b, fed), Day 17): 1500 (113) ng/mL
- Mean Cmin (SD) (Panel II (450 mg BID Days 1-2, then 450 mg Q3D/Q4D; SF2a/b, fed), Day 1): 0.000 (0.000) ng/mL
- Mean Cmin (SD) [2]: 2492 (307) ng/mL
- Mean Ctrough (SD) [2]: 2503 (293) ng/mL
- Mean Ctrough (SD) (Panel II (450 mg BID Days 1-2, then 450 mg Q3D/Q4D; SF2a/b, fed), Day 3): 4132 (401) ng/mL
- Mean Ctrough (SD) (Panel II (450 mg BID Days 1-2, then 450 mg Q3D/Q4D; SF2a/b, fed), Day 6): 2708 (429) ng/mL
- Mean Ctrough (SD) (Panel II (450 mg BID Days 1-2, then 450 mg Q3D/Q4D; SF2a/b, fed), Day 10): 2340 (577) ng/mL
- Mean Ctrough (SD) (Panel II (450 mg BID Days 1-2, then 450 mg Q3D/Q4D; SF2a/b, fed), Day 13): 2343 (639) ng/mL
- Mean Ctrough (SD) (Panel II (450 mg BID Days 1-2, then 450 mg Q3D/Q4D; SF2a/b, fed), Day 17): 2088 (693) ng/mL
- Mean Ctrough (Panel II (450 mg BID Days 1-2, then 450 mg Q3D/Q4D; SF2a/b, fed), Day 20): 2270 (652) ng/mL
- Mean Ctrough (SD) (Panel II (450 mg BID Days 1-2, then 450 mg Q3D/Q4D; SF2a/b, fed), Day 24): 2016 (847) ng/mL
- Mean Ctrough (SD) (Panel II (450 mg BID Days 1-2, then 450 mg Q3D/Q4D; SF2a/b, fed), Day 27): 1928 (605) ng/mL
- Mean Cmin (SD) (Panel III (150 mg BID Days 1-2, then 300 mg Q7D; SF2a/b, fed), Day 1): 0.000 (0.000) ng/mL
- Mean Cmin (SD) [3]: 899 (151) ng/mL
- Mean Ctrough (SD) [3]: 899 (151) ng/mL
- Mean Ctrough (SD) (Panel III (150 mg BID Days 1-2, then 300 mg Q7D; SF2a/b, fed), Day 3): 1582 (298) ng/mL
- Mean Ctrough (SD) (Panel III (150 mg BID Days 1-2, then 300 mg Q7D; SF2a/b, fed), Day 10): 775 (99.3) ng/mL
- Mean Ctrough (SD) (Panel III (150 mg BID Days 1-2, then 300 mg Q7D; SF2a/b, fed), Day 17): 700 (98.1) ng/mL
- Mean Cmin (SD) (Panel IV (150 mg BID Days 1-2, then 150 mg Q3D/Q4D; SF2a/b, fed), Day 1): 0.000 (0.000) ng/mL
- Mean Cmin (SD) [4]: 892 (257) ng/mL
- Mean Ctrough (SD) [4]: 892 (257) ng/mL
- Mean Ctrough (SD) (Panel IV (150 mg BID Days 1-2, then 150 mg Q3D/Q4D; SF2a/b, fed), Day 3): 1472 (385) ng/mL
- Mean Ctrough (SD) (Panel IV (150 mg BID Days 1-2, then 150 mg Q3D/Q4D; SF2a/b, fed), Day 6): 865 (236) ng/mL
- Mean Ctrough (SD) (Panel IV (150 mg BID Days 1-2, then 150 mg Q3D/Q4D; SF2a/b, fed), Day 10): 681 (234) ng/mL
- Mean Ctrough (SD) (Panel IV (150 mg BID Days 1-2, then 150 mg Q3D/Q4D; SF2a/b, fed), Day 13): 689 (238) ng/mL
- Mean Ctrough (SD) (Panel IV (150 mg BID Days 1-2, then 150 mg Q3D/Q4D; SF2a/b, fed), Day 17): 570 (269) ng/mL
- Mean Ctrough (Panel IV (150 mg BID Days 1-2, then 150 mg Q3D/Q4D; SF2a/b, fed), Day 20): 710 (236) ng/mL
- Mean Ctrough (SD) (Panel IV (150 mg BID Days 1-2, then 150 mg Q3D/Q4D; SF2a/b, fed), Day 24): 612 (239) ng/mL
- Mean Ctrough (SD) (Panel IV (150 mg BID Days 1-2, then 150 mg Q3D/Q4D; SF2a/b, fed), Day 27): 623 (237) ng/mL
- AUC [5]: 5680 ng·h/mL
- Tmax [5]: 5 h
- AUC [6]: 16800 ng·h/mL
- Cmax [6]: 1810 ng/mL
- Tmax [6]: 5 h
- Cmax (human, plasma, oral, 150 mg, Panel IV (150 mg BID Days 1-2, then 150 mg Q3D/Q4D; SF2a/b, fed), Day 1): 753 ng/mL
- AUC(0-t) (human, plasma, oral, 150 mg, Panel IV (150 mg BID Days 1-2, then 150 mg Q3D/Q4D; SF2a/b, fed), Day 3, read-out: Mean AUC24 h (SD)): 38600 ng·h/mL
- AUC(0-t) (human, plasma, oral, 150 mg, Panel IV (150 mg BID Days 1-2, then 150 mg Q3D/Q4D; SF2a/b, fed), Day 3, read-out: Mean AUC72 h (SD)): 89200 ng·h/mL
- Cmax [7]: 2120 ng/mL
- Tmax [7]: 5 h
- Cmax (human, plasma, oral, 150 mg, Panel IV (150 mg BID Days 1-2, then 150 mg Q3D/Q4D; SF2a/b, fed), Day 6): 1460 ng/mL
- Cmax (human, plasma, oral, 150 mg, Panel IV (150 mg BID Days 1-2, then 150 mg Q3D/Q4D; SF2a/b, fed), Day 10): 1230 ng/mL
- Cmax (human, plasma, oral, 150 mg, Panel IV (150 mg BID Days 1-2, then 150 mg Q3D/Q4D; SF2a/b, fed), Day 13): 1180 ng/mL
- Cmax (human, plasma, oral, 150 mg, Panel IV (150 mg BID Days 1-2, then 150 mg Q3D/Q4D; SF2a/b, fed), Day 17, n = 3): 1210 ng/mL
- Cmax (human, plasma, oral, 150 mg, Panel IV (150 mg BID Days 1-2, then 150 mg Q3D/Q4D; SF2a/b, fed), Day 20): 1200 ng/mL
- Cmax (human, plasma, oral, 150 mg, Panel IV (150 mg BID Days 1-2, then 150 mg Q3D/Q4D; SF2a/b, fed), Day 24): 1260 ng/mL
- AUC(0-t) (human, plasma, oral, 150 mg, Panel IV (150 mg BID Days 1-2, then 150 mg Q3D/Q4D; SF2a/b, fed), Day 27, read-out: Mean AUC24 h (SD)): 26000 ng·h/mL
- AUC(0-t) (human, plasma, oral, 150 mg, Panel IV (150 mg BID Days 1-2, then 150 mg Q3D/Q4D; SF2a/b, fed), Day 27, read-out: Mean AUC72 h (SD)): 65800 ng·h/mL
- AUC(0-t) (human, plasma, oral, 150 mg, Panel IV (150 mg BID Days 1-2, then 150 mg Q3D/Q4D; SF2a/b, fed), Day 27, read-out: Mean AUClast (SD)): 258000 ng·h/mL
- AUC(0-inf) (human, plasma, oral, 150 mg, Panel IV (150 mg BID Days 1-2, then 150 mg Q3D/Q4D; SF2a/b, fed), Day 27, read-out: Mean AUC∞ (SD)): 274 µg·h/mL
- Cmax [8]: 1380 ng/mL
- Tmax [8]: 5 h
- AUC(0-t) (human, plasma, oral, 300 mg, Panel III (150 mg BID Days 1-2, then 300 mg Q7D; SF2a/b, fed), Day 3, read-out: Mean AUC24 h (SD)): 52400 ng·h/mL
- AUC(0-t) (human, plasma, oral, 300 mg, Panel III (150 mg BID Days 1-2, then 300 mg Q7D; SF2a/b, fed), Day 3, read-out: Mean AUC72 h (SD)): 122000 ng·h/mL
Compound: COc1cc(NC(C(=O)c2c[nH]c3ccc(OC(F)(F)F)cc23)c2ccc(Cl)cc2OC)cc(S(C)(=O)=O)c1 (centres unmarked) [Compound (a)]
- maintaining exposures over time with weekly or twice weekly dosing (Panels I-IV, fed): feasible to maintain Compound (a) exposures over time
